Reference: ChEMBL document CHEMBL1201862, “PubChem BioAssay data set” (2004)
Activity calls are given as the source filed them.

How the values were obtained:
[1] = Luminescence Cell-Based Dose Retest to Confirm Inhibitors of Cancer Stem Cells. [Related pubchem assays (depositor defined):AID2717, AID2721]; type: functional; conditions: Homo sapiens
[2] = biological target: Voltage-gated inwardly rectifying potassium channel KCNH2 (Homo sapiens, UniProt Q12809); assay: hERG protection from proarrhythmic block, potency, dose response, cell-based, thallium flux (AID 2121); type: ADME
[3] = HEp-2 cell cytotoxicity, dose response, cytotoxicity control for RSV inhibitor project, HTS (AID 2410); type: functional; conditions: human respiratory syncytial virus
[4] = microbe, parasite or virus in culture; type: functional; conditions: Mycobacterium tuberculosis
Bcl-2-related protein A1 [5] = biological target: T1, Bcl-2-related protein A1 (Mus musculus, UniProt Q07440); assay: Bfl-1 binding inhibitors, SAR follow-up, biochemical, fluorescence polarization (AID 1070)
T1 sequence (Q07440 whole entry): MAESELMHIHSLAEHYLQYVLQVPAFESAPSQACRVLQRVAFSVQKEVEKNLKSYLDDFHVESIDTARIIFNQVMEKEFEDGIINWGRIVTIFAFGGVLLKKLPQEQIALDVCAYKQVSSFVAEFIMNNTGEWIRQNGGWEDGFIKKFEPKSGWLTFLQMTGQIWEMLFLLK

Bcl-2-related protein A1 [6] = biological target: T1, Bcl-2-related protein A1; assay: Bfl-1 inhibitors blocking BH3 peptide binding, confirmation, biochemical, TR-FRET, mouse Bfl-1 (AID 621);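 note: TR-FRET binding of GST-Bfl-1 to FITC-labelled Bid peptide via terbium antibody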
Estrogen receptor = biological target: T2, Estrogen receptor (Homo sapiens, UniProt P03372);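 note: potency for inhibiting coactivator peptide recruitment to the receptor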
T2 sequence (P03372 whole entry): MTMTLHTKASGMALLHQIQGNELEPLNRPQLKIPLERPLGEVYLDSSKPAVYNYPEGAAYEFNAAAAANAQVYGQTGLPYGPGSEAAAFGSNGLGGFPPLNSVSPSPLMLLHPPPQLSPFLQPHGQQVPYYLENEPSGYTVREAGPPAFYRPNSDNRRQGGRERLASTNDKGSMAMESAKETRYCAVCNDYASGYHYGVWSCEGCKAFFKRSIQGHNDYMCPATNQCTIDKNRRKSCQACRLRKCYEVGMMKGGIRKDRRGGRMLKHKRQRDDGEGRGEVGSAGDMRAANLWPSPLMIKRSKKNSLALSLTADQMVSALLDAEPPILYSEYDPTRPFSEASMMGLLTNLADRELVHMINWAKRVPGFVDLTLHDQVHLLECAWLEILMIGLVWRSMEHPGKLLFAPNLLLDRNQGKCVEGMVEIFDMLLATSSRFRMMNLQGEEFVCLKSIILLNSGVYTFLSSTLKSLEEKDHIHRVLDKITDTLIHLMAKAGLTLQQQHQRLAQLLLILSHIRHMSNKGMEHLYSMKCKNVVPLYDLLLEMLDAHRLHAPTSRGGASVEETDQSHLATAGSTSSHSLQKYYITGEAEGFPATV

HEK293 [7] = assay: cells; conditions: Homo sapiens
HEK293 [8] = assay: cells; conditions: Homo sapiens; remark: listed apart in the source
[9] = biological target: T3, Rac GTPase-activating protein 1 (Homo sapiens, UniProt Q9H0H5); assay: MgcRacGAP GTPase-activating activity inhibitors, confirmation, biochemical, ADP Hunter fluorescence, primary and confirmatory (AID 624330); type: functional
T3 sequence (Q9H0H5 whole entry): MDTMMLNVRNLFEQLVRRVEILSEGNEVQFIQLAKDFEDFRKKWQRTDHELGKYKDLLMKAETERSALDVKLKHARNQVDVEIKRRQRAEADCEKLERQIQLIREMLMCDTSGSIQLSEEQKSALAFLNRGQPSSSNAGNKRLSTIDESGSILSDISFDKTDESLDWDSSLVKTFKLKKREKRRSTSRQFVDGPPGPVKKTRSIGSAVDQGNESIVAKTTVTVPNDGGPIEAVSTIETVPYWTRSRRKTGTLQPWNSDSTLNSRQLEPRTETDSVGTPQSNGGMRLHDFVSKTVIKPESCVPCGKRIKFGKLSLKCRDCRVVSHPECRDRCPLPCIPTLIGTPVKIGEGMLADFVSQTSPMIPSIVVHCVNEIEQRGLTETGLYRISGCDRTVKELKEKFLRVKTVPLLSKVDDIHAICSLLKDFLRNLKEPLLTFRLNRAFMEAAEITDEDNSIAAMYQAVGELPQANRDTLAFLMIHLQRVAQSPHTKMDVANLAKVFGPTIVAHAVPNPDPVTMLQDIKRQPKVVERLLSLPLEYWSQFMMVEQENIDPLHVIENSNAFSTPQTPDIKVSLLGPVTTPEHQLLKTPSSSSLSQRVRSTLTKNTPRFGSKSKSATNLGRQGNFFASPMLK

[10] = Luminescent dose response cell-based high throughput screening assay for inhibitors of the Janus kinase 2 mutant JAK2V617F. [Related pubchem assays: 1446 (Primary screen.), 1521 (Confirmation assay.), 1486 (Counter screen.)]; type: functional
[11] = biological target: FAD-linked sulfhydryl oxidase ALR (Homo sapiens, UniProt P55789); assay: inhibitors of human ALR sulfhydryl oxidase, dose response, biochemical, H2O2 detection, luminescence, cherry-pick (AID 493248)
[12] = Shn3 3'UTR reporter inhibitors, dose response, cell-based, Clone20 osteoblasts, firefly luciferase, cherry-picked (AID 624132); type: functional;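 note: firefly luciferase luminescence from reporter carrying the Shn3 3'UTR in osteoblasts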
Cytochrome P450 2D6 = Cytochrome P450 2D6 (Homo sapiens, UniProt P10635);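 note: CYP2D6 member of a cytochrome P450 panel assay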
[13] = ZM109 Env clade C HIV-1 fusion inhibitors, dose response, HeLa effector, CEM target cells, luciferase, cherry-pick (AID 652058); type: functional, cell-based
[14] = inhibitors of clade B AD8 Env fusion, dose response, cell-based, cherry-pick (AID 652062); type: functional;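 note: luciferase signal from cell-cell fusion driven by HIV-1 clade B AD8 Env; potency is for inhibitors of fusion seen as a drop in luminescence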
[15] = Vero cell cytotoxicity, dose response, cytotoxicity control for Vif-APOBEC3G degradation inhibitor project, Vero cells (AID 1117358); type: functional; conditions: Human immunodeficiency virus 1, Vero
Cytochrome P450 2C9 = Cytochrome P450 2C9 (Homo sapiens, UniProt P11712)
[16] = CEM21 lymphoblast cell cytotoxicity, dose response, cytotoxicity control for viral fusion inhibitor project, CellTiter-Glo luminescence, cherry-picked (AID 652042); type: functional, cell-based;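 note: potency for signal decrease meaning cytotoxicity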
[17] = off-target signal loss in HeLa-CEM21 co-culture – HeLa F-luc CTL cells, cherry-picked, counter-screen for HIV-1 Env fusion inhibitor project, dose response (AID 652040); type: functional, cell-based;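 note: potency for signal decrease marking cytotoxic or nonspecific inhibition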
[18] = inhibitors of HIV Env-driven cell fusion, dose response, cherry-pick (AID 652057); type: functional, cell-based
Cytochrome P450 1A2 = biological target: T4, Cytochrome P450 1A2 (Homo sapiens, UniProt P05177);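 note: PubChem cytochrome P450 panel assay, CYP1A2 panel member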
T4 sequence (P05177 whole entry): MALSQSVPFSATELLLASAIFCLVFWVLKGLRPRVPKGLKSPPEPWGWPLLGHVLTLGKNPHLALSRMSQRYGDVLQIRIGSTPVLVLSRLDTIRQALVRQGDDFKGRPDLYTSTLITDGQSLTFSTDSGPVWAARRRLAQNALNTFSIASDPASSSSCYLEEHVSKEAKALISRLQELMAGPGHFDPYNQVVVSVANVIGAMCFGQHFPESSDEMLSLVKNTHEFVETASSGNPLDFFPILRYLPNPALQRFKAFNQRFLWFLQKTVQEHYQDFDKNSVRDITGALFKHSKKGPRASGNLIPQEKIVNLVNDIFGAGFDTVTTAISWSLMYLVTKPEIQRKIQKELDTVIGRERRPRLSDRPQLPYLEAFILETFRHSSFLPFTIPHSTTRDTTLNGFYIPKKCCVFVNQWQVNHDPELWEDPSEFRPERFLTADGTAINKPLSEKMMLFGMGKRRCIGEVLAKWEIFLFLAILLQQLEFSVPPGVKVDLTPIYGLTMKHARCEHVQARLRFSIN

[19] = HepG2 cell cytotoxicity, dose response, cytotoxicity control for Shn3 inhibitor project, CellTiter-Glo, cherry-picked (AID 624134); type: functional, cell-based
[20] = control 3'UTR Renilla luciferase suppression, dose response, counter-screen for Shn3 inhibitor project, cell-based, Clone20-Shn3RL, cherry-picked (AID 624133); type: functional
BJ [21] = assay: cytotoxicity toward BJ-TERT fibroblasts, dose response, cell-based, RAS-independent, luminescence (AID 1933); type: functional; conditions: Homo sapiens
BJ [22] = assay: cytotoxicity toward BJ-TERT-LT-ST fibroblasts, dose response, cell-based, RAS-independent, luminescence (AID 1935); type: functional; conditions: Homo sapiens;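 note: BJ fibroblasts immortalized with TERT plus LT and ST oncogenes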
BJ [23] = assay: cytotoxicity toward Ras-transformed BJeLR fibroblasts, dose response, cell-based, alamar blue fluorescence, cherrypicked samples (AID 2631); type: functional; conditions: Homo sapiens;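 note: confirmatory dose-response assay in RAS-dependent BJ fibroblasts engineered with TERT, LT and ST, with cytotoxicity read by fluorescence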
[24] = cytotoxicity toward DRD oncogenic fibroblasts, dose response, cell-based, non-viral oncogenic, luminescence (AID 1934); type: functional; conditions: Homo sapiens
BJ [25] = assay: cells; type: functional, cell-based; conditions: Homo sapiens
[26] = biological target: Epstein-Barr nuclear antigen 1 (Epstein-Barr virus (strain B95-8) (HHV-4) (Human herpesvirus 4), UniProt P03211); assay: EBNA-1 inhibitors, dose response, biochemical, fluorescence polarization, 1536-well (AID 2381); design: species or system human gammaherpesvirus 4;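 note: fluorescence polarization of a Cy5 DNA probe bound by EBNA-1 protein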
[27] = biological target: Lytic switch protein BZLF1 (Epstein-Barr virus (strain B95-8) (HHV-4) (Human herpesvirus 4), UniProt P03206); assay: EBV ZTA inhibitors, dose response, counter-screen for EBNA-1 inhibitor project, biochemical, fluorescence polarization, Epstein-Barr virus, 1536-well (AID 2377); design: species or system human gammaherpesvirus 4;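 note: fluorescence polarization of Cy5-labelled ZRE DNA probe bound by purified Zta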
Galanin receptor type 2 = Galanin receptor type 2 (Homo sapiens, UniProt O43603); assay: Dose Response cell-based high-throughput screening assay to identify antagonists of galanin receptor 2 (GALR2). [Related pubchem assays: 828, 866 ]; type: functional
Estrogen receptor beta [28] = biological target: T5, Estrogen receptor beta (Homo sapiens, UniProt Q92731); assay: ERβ–SRC-3 coactivator interaction inhibitors, confirmation, orthogonal assay, biochemical, ELISA, streptavidin-HRP readout (AID 1060)
Estrogen receptor beta [29] = biological target: T5, Estrogen receptor beta
[30] = biological target: 5-hydroxytryptamine receptor 1A (Homo sapiens, UniProt P08908); type: functional
[31] = biological target: T6, Heat shock factor protein 1 (Mus musculus, UniProt P38532); assay: HSF1 potentiators in luciferase reporter cells, confirmation, cell-based, NIH3T3, luminescence, dose retest (AID 435004); type: functional;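 note: stress induced by proteasome inhibitor MG132 added 30 min after compound; luciferase reporter driven by HSF1 response element in NIH3T3 cells; actives raise luminescence as potentiators of the MG132 stress response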
T6 sequence (P38532 whole entry): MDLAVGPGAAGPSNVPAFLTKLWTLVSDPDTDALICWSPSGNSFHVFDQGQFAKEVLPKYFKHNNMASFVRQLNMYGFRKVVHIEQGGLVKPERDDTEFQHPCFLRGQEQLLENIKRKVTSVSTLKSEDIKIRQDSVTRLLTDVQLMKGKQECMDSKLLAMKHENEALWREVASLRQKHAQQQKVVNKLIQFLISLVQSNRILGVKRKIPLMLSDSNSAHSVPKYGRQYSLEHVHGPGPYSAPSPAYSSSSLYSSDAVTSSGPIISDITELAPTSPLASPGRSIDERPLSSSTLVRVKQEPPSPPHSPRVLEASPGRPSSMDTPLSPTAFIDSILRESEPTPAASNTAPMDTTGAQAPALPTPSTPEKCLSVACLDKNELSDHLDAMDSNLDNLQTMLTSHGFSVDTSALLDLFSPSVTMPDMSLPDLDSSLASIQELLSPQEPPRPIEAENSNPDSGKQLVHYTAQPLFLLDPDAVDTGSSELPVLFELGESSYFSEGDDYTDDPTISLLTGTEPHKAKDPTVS

[32] = Fluorescence-based cell-based high throughput dose response assay for inhibitors of the interaction of nucleotide-binding oligomerization domain containing 2 (NOD2) and the receptor-interacting serine-threonine kinase 2 (RIPK2).; type: functional; conditions: Homo sapiens

Voltage-gated inwardly rectifying potassium channel KCNH2, sequence (Q12809 whole entry): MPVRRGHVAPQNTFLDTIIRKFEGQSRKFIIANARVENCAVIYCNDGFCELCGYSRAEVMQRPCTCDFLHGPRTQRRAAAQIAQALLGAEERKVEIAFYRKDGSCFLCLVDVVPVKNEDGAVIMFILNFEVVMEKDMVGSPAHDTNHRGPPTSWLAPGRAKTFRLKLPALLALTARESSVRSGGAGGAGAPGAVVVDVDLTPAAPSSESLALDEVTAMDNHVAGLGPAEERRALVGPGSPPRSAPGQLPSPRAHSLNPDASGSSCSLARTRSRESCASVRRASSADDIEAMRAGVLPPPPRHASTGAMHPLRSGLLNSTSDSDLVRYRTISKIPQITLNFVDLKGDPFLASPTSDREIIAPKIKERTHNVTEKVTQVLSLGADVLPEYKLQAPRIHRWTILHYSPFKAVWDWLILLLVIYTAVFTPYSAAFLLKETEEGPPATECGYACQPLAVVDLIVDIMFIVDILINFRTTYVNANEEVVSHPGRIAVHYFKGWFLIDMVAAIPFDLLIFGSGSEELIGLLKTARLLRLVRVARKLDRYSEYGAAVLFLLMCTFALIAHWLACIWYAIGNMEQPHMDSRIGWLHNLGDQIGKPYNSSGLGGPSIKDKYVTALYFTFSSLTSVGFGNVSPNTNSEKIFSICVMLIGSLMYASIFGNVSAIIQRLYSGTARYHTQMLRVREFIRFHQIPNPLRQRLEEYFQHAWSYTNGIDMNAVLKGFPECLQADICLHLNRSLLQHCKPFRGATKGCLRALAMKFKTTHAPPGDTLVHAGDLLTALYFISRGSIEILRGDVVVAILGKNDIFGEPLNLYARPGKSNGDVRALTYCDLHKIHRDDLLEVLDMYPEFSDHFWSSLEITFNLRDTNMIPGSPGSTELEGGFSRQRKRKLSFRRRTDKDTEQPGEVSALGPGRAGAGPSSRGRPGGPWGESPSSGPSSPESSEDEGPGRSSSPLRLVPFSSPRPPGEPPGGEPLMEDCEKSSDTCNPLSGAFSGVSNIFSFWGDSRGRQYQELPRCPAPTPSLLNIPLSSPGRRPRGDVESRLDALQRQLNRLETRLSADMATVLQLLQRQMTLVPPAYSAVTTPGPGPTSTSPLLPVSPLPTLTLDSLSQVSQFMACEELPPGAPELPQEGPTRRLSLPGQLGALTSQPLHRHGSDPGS
T5 sequence (Q92731 whole entry): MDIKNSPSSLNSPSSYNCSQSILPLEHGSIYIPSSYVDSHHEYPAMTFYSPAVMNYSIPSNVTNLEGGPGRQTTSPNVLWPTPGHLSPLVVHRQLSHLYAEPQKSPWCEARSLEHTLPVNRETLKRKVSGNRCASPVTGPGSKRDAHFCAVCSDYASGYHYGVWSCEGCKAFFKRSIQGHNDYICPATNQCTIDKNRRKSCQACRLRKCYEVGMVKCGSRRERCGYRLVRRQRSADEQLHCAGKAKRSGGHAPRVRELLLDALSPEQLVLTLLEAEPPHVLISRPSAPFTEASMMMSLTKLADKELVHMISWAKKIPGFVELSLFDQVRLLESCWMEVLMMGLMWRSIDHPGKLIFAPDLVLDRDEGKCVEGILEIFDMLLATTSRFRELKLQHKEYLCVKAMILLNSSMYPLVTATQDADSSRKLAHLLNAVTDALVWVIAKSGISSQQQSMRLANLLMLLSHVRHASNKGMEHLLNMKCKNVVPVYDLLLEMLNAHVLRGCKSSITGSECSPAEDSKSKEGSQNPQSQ
Galanin receptor type 2, sequence (O43603 whole entry): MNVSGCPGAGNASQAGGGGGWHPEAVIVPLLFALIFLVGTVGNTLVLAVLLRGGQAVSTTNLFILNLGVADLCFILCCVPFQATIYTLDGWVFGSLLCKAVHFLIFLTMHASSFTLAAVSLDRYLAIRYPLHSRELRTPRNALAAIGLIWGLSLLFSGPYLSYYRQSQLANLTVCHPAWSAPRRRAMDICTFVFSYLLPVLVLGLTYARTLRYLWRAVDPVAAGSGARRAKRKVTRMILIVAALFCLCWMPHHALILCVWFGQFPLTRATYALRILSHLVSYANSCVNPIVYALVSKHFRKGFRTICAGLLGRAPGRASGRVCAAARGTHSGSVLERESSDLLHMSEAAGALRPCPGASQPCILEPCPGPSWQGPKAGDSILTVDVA
5-hydroxytryptamine receptor 1A, sequence (P08908 whole entry): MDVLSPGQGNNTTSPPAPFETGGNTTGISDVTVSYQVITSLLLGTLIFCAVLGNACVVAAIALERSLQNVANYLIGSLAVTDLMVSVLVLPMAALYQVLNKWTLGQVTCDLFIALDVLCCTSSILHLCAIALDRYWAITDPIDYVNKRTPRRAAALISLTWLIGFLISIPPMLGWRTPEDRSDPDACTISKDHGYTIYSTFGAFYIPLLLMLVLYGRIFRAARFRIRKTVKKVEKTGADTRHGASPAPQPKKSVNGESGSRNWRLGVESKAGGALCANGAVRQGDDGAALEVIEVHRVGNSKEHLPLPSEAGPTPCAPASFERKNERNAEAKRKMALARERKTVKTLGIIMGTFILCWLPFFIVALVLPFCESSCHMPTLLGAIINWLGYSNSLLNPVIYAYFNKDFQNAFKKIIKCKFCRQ
Cytochrome P450 2D6, sequence (P10635 whole entry, the tested form may be a part): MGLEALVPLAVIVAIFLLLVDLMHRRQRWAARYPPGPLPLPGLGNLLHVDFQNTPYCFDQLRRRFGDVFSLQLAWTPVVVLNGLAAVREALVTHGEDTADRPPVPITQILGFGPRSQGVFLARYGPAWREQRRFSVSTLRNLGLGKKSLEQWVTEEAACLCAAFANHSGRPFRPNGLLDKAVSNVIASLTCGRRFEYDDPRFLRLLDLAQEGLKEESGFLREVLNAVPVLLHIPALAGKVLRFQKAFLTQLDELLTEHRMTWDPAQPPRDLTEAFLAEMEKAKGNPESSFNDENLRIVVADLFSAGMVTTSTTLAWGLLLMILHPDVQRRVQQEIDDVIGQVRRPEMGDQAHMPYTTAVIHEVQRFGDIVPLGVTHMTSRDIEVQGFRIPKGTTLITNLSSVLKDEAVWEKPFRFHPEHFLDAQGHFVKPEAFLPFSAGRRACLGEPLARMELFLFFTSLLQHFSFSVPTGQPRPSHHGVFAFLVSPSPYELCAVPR
Epstein-Barr nuclear antigen 1, sequence (P03211 whole entry): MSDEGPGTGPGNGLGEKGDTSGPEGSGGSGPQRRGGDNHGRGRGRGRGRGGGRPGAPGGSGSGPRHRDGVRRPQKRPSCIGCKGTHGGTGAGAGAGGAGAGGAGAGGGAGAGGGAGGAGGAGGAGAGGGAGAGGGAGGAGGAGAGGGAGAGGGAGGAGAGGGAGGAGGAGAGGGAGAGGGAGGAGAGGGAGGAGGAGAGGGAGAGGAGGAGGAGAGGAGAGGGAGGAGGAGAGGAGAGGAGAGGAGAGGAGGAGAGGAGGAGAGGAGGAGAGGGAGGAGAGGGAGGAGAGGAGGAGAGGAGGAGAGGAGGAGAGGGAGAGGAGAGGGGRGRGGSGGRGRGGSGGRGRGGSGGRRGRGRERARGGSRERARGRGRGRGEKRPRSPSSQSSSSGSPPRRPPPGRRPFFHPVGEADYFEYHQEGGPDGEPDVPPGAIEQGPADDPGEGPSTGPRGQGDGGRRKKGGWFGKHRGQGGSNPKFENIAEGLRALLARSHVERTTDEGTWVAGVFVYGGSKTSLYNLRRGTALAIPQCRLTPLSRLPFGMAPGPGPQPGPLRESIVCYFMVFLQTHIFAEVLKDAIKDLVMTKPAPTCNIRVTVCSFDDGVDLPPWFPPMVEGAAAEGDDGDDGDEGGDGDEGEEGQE
Lytic switch protein BZLF1, sequence (P03206 whole entry): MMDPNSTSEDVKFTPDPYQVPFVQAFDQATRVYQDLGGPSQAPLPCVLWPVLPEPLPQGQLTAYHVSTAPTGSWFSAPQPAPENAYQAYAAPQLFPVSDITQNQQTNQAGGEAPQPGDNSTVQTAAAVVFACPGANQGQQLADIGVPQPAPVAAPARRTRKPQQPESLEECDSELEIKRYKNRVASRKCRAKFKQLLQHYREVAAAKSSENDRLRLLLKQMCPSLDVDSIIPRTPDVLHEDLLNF
Cytochrome P450 2C9, sequence (P11712 whole entry, the tested form may be a part): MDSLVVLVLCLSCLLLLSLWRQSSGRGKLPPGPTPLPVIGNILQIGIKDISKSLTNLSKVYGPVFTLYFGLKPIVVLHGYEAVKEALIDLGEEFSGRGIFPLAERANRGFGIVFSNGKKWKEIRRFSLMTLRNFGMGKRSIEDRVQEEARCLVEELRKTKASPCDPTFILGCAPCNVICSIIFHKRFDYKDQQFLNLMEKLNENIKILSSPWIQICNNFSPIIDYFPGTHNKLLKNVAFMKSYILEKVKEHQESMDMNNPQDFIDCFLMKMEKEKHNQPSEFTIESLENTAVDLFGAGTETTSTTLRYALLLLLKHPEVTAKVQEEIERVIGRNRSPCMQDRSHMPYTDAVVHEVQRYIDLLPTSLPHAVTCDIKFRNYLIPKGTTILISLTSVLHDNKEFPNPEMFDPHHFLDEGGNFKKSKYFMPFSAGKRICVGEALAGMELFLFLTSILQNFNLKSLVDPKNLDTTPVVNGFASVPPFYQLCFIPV
FAD-linked sulfhydryl oxidase ALR, sequence (P55789 whole entry): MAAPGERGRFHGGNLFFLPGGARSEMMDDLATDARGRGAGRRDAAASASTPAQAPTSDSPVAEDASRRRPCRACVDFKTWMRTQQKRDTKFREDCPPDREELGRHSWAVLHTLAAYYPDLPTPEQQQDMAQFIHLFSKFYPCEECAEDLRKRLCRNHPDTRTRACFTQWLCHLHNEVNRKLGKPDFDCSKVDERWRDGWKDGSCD

O=C(NC(=S)Nc1ccc(N2CCCCC2)c(Cl)c1)c1cccs1
AC50 [1]: 6.16 µM (active)
EC50 [2]: 0.2 µM (active)
CC50 [3]: 17.3 µM (active)
CC50 [4]: > 40 µM (active)

c1ccc(-n2nnc(-c3cnc4ccccc4c3)n2)cc1
IC50 (Bcl-2-related protein A1 [5]): > 100 µM (not active)
IC50 (Bcl-2-related protein A1 [6]): > 100 µM (not active)

Clc1ncccc1-c1nnn(-c2ccccc2)n1
IC50 (Bcl-2-related protein A1 [5]): > 100 µM (not active)
IC50 (Bcl-2-related protein A1 [6]): > 100 µM (not active)

O=C(Nc1ccccc1[N+](=O)[O-])C1=C(O)CCn2c1nc1ccccc12
IC50 (Estrogen receptor): 18.6 µM (active)
EC50 (HEK293 [7]): > 59.7 µM (inactive)
EC50 (HEK293 [8]): > 59.7 µM (inactive)

CN(c1ccccc1)S(=O)(=O)c1cccc(C(=O)NCCc2ccc(O)c(O)c2)c1
IC50 [9]: 69.2 µM (active)
IC50 [10]: 7.29 µM (active)
AC50 [11]: 4.37 µM (active)

Nc1nc(Cl)cc(N2CCC(c3cc(-c4ccc(Cl)cc4Cl)[nH]n3)CC2)n1
AC50 [12]: 4.94 µM (active)
AC50 (Cytochrome P450 2D6): 12.6 µM (inconclusive)
AC50 [13]: 0.394 µM (active)
AC50 [14]: 16.6 µM (active)
CC50 [15]: > 40 µM (active)
AC50 (Cytochrome P450 2C9): 22.4 µM (inconclusive)
AC50 [16]: 36.1 µM (active)
AC50 [17]: > 70 µM (inactive)
AC50 [18]: 18.5 µM (active)
AC50 (Cytochrome P450 1A2): 6.31 µM (inconclusive)
AC50 [19]: 62 µM (active)
AC50 [20]: 5.61 µM (active)
CC50 [4]: > 40 µM (active)

Nc1nc(CCl)nc(N(c2ccccc2)c2ccccc2)n1
EC50 (BJ [21]): 0.652 µM (inconclusive)
EC50 (BJ [22]): 12.1 µM (inconclusive)
EC50 (BJ [23]): 0.229 µM (active)
EC50 [24]: 0.674 µM (active)
EC50 (BJ [25]): 2.65 µM (active)
IC50 [10]: 0.721 µM (active)

CC1CCCCC1NC(=S)NC(=O)c1sc2ccccc2c1Cl (stereo not drawn)
EC50 [2]: 4.87 µM (active)

COc1ccc(NC(=O)NCc2ccc3c(c2)OCO3)c(OC)c1
IC50 [26]: 18.3 µM (not active)
IC50 [27]: > 111 µM (not active)

Cc1ccc(S(=O)(=O)NCc2ccncc2)cc1
IC50 (Galanin receptor type 2): > 42 µM (not active)

O=C(COC(=O)C1CC2C=CC1C2)NCc1ccco1 (stereo not drawn)
IC50 (Estrogen receptor beta [28]): > 109 µM (not active)
IC50 (Estrogen receptor beta [29]): 7.15 µM (active)

CN1CC=C(c2c[nH]c3ccccc23)CC1
EC50 [30]: 12 µM (not active)

COc1cc(/C=C/[N+](=O)[O-])ccc1O
EC50 (BJ [21]): 10.6 µM (inconclusive)
EC50 (BJ [22]): > 75 µM (inconclusive)
EC50 [31]: 8.18 µM (active)
IC50 [32]: 4.84 µM (active)
EC50 (BJ [23]): 4.46 µM (active)
EC50 [24]: 10.3 µM (active)
EC50 (BJ [25]): 15.5 µM (active)
IC50 (Galanin receptor type 2): > 4.6 µM (not active)
